Measurements published in patent publication US20240368192A1, “Nitrogen-Containing Heterocyclic Compound, and Preparation Method Therefor, Intermediate Thereof, and Application Thereof” (Shanghai Allist Pharmaceuticals Co., Ltd., priority 2021, published 2024).
Structures can show the parent of a compound that is named as a salt.

target: Ba/F3 KRAS-G12V cells (Homo sapiens, UniProt P01116, G12V, cells depend on it); test: Proliferation inhibitory activity on Ba/F3 KRAS-G12V stably transfected cell line (CellTiter-Glo, 72 hours); format: cell-based, mouse; details: read-out: Ba/F3 KRAS-G12V IC50
Excerpt: (§1) Test Example 1: Proliferation Inhibitory Activity on Ba/F3 KRAS-G12D, Ba/F3 KRAS-G12V Stably Transfected Cell Lines and AGS Tumor Cell Lines Containing KRAS G12D Mutations
(§2) To determine the proliferation inhibitory activity of the compounds in vitro on mouse pro-B cells Ba/F3 (Ba/F3 KRAS-G12D and Ba/F3 KRAS-G12V cells stably expressing KRAS G12D/V mutant proteins) and gastric cancer AGS cells expressing KRAS G12D mutant protein.
(§3) Cell sources. Ba/F3 KRAS-G12D and Ba/F3 KRAS-G12V were purchased from Kyinno Biotech (Beijing) Co., Ltd, Cat. No.: KC-1259 and KC-1261, respectively; AGS was purchased from Shanghai Bioleaf Biotech Co., Ltd.
(§4) Cells in the logarithmic growth phase were seeded in a 96-well plate (8000, 8000, 4000 cells/well, 90 μL/well for Ba/F3 KRAS-G12D, Ba/F3 KRAS-G12V, and AGS cells respectively), incubated at 37° C. for 1 day with 5% CO2, and then a gradient dilution of the test compound was added thereto (compounds 1 to 28 and comparative compounds). The details were as follows, the compound stock solution (10 mM) previously dissolved in DMSO was diluted to 10 gradient concentrations at a fold ratio (4 fold) and diluted to 10 fold of the target concentration in another 96-well plate with culture medium, and then 10 μL/well of the compound solution was added to the 96-well plate seeded with cells to reach the target concentration (10000, 2500, 625, 156, 39, 10, 2.5, 0.6, 0.15, 0.04 nM). Each concentration was provided with 3 duplicate wells and a blank control. After continued incubation at 37° C. and 5% CO2 for 72 hours, 50 μL of CellTiter-Glo*2.0 reagent (luciferase ATP bioluminescence detection reagent, purchased from Promega, Cat. No.: G9243) was added to each well, shaken for 2 minutes, and incubated at room temperature for 8 minutes, and then fluorescence luminescence intensity was detected (light collection time was 100 ms). The inhibitory rate of compounds with various concentrations on cell proliferation was calculated. Cell proliferation inhibition rate (%)=[(luminous intensitycontrol group containing cell culture medium for 72 hour−luminous intensitycompound group for 72 hour)/(luminous intensitycontrol group containing cell culture medium for 72 hours−luminous intensitycontrol group without cell culture medium for 72 hour)]×100%. GraphPad Prism 8.3 software was used to analyze the data, and nonlinear S-curve regression was used to fit the data to obtain a dose-effect curve, from which the IC50 value was calculated.

Sequence of Ba/F3 KRAS-G12V cells (P01116 whole entry G12V): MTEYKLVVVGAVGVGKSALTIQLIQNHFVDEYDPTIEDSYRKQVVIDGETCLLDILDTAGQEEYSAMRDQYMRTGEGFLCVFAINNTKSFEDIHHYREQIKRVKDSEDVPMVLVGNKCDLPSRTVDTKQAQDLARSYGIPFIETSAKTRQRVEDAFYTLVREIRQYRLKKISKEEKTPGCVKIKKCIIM

Row | GI50 [µM] | Structure (SMILES)
1 | 5 to 10 | C#Cc1c(F)ccc2cc(O)cc(-c3ncc4c(N5CC[C@H](N)C5)nc(OC[C@@]56CCCN5C[C@H](F)C6)nc4c3F)c12 [Compound 15, 4-(4-((S)-3-Aminopyrrolidin-1-yl)-8-fluoro-2-(((2R,7aS)-2-fluorohexahydro-1H-pyrrolizin-7a-yl)methoxy)pyrido[4,3-d]pyrimidin-7-yl)-5-ethynyl-6-fluoronaphthalen-2-ol]
2 | 5 to 10 | Cc1cc(N)nc(-c2ncc3c(N4C[C@@H](N)C[C@H](O)C4)nc(OC[C@@]45CCCN4C[C@H](F)C5)nc3c2F)c1C(F)(F)F [Compound 1, (3S,5S)-5-Amino-1-(7-(6-amino-4-methyl-3-(trifluoromethyl)pyridin-2-yl)-8-fluoro-2-(((2R,7aS)-2-fluorohexahydro-1H-pyrrolizin-7a-yl)methoxy)pyrido[4,3-d]pyrimidin-4-yl)piperidin-3-ol bis(2,2,2-trifluoroacetate)]
3 | 5 to 10 | C#Cc1c(F)ccc2cc(O)cc(-c3ncc4c(N5C[C@@H]6C[C@]6(N)C5)nc(OC[C@@]56CCCN5C[C@H](F)C6)nc4c3F)c12 [Compound 9, 4-(4-((1R,5S)-1-Amino-3-azabicyclo[3.1.0]hexan-3-yl)-8-fluoro-2-(((2R,7aS)-2-fluorohexahydro-1H-pyrrolizin-7a-yl)methoxy)pyrido[4,3-d]pyrimidin-7-yl)-5-ethynyl-6-fluoronaphthalen-2-ol]
4 | 5 to 10 | C#Cc1c(F)ccc2cc(O)cc(-c3ncc4c(N5CCC[C@H](N)C5)nc(OC[C@@]56CCCN5C[C@H](F)C6)nc4c3F)c12 [Compound 7, 4-(4-((S)-3-Aminopiperidin-1-yl)-8-fluoro-2-(((2R,7aS)-2-fluorohexahydro-1H-pyrrolizin-7a-yl)methoxy)pyrido[4,3-d]pyrimidin-7-yl)-5-ethynyl-6-fluoronaphthalen-2-ol]
5 | 5 to 10 | C#Cc1c(F)ccc2cc(O)cc(-c3ncc4c(N5C[C@@H](N)C[C@@H](O)C5)nc(OC[C@@]56CCCN5C[C@H](F)C6)nc4c3F)c12 [Compound 16, (3R,5S)-5-Amino-1-(7-(8-ethynyl-7-fluoro-3-hydroxynaphthalen-1-yl)-8-fluoro-2-(((2R,7aS)-2-fluorohexahydro-1H-pyrrolizin-7a-yl)methoxy)pyrido[4,3-d]pyrimidin-4-yl)piperidin-3-ol bis(2,2,2-trifluoroacetate)]
6 | 5 to 10 | C#Cc1c(F)ccc2cc(O)cc(-c3ncc4c(N5C[C@H](N)C[C@H](O)C5)nc(OC[C@@]56CCCN5C[C@H](F)C6)nc4c3F)c12 [Compound 13, (3S,5R)-5-Amino-1-(7-(8-ethynyl-7-fluoro-3-hydroxynaphthalen-1-yl)-8-fluoro-2-(((2R,7aS)-2-fluorohexahydro-1H-pyrrolizin-7a-yl)methoxy)pyrido[4,3-d]pyrimidin-4-yl)piperidin-3-ol]

The next lines start with the molecule.

Row | Structure (SMILES) | GI50 [µM]
7 | C#Cc1c(F)ccc2cc(O)cc(-c3ncc4c(N5C[C@@H]6[C@@H](N)[C@@H]6C5)nc(OC[C@@]56CCCN5C[C@H](F)C6)nc4c3F)c12 [Compound 11, 4-(4-((1R,5S,6R)-6-Amino-3-azabicyclo[3.1.0]hexan-3-yl)-8-fluoro-2-(((2R,7aS)-2-fluorohexahydro-1H-pyrrolizin-7a-yl)methoxy)pyrido[4,3-d]pyrimidin-7-yl)-5-ethynyl-6-fluoronaphthalen-2-ol dihydrochloride] | 5 to 10
8 | N[C@H]1C[C@H](O)CN(c2nc(OC[C@@]34CCCN3C[C@H](F)C4)nc3c(F)c(-c4cc(O)cc5ccccc45)ncc23)C1 [Compound 4, (3S,5S)-5-Amino-1-(8-fluoro-2-(((2R,7aS)-2-fluorohexahydro-1H-pyrrolizin-7a-yl)methoxy)-7-(3-hydroxynaphthalen-1-yl)pyrido[4,3-d]pyrimidin-4-yl)piperidin-3-ol] | 5 to 10
9 | Cc1cc(N)nc(-c2nc(N)c3c(N4C[C@H]5CC[C@@H](C4)N5)nc(OC[C@@]45CCCN4C[C@H](F)C5)nc3c2F)c1C(F)(F)F [Compound 19, 7-(6-Amino-4-methyl-3-(trifluoromethyl)pyridin-2-yl)-4-((1R,5S)-3,8-diazabicyclo[3.2.1]octan-3-yl)-8-fluoro-2-(((2R,7aS)-2-fluorohexahydro-1H-pyrrolizin-7a-yl)methoxy)pyrido[4,3-d]pyrimidin-5-amine] | 5 to 10
10 | C#Cc1c(F)ccc2cc(O)cc(-c3ncc4c(N5C[C@@H](N)C[C@H](O)C5)nc(OC[C@@]56CCCN5C[C@H](F)C6)nc4c3F)c12 [Compound 8, (3S,5S)-5-Amino-1-(7-(8-ethynyl-7-fluoro-3-hydroxynaphthalen-1-yl)-8-fluoro-2-(((2R,7aS)-2-fluorohexahydro-1H-pyrrolizin-7a-yl)methoxy)pyrido[4,3-d]pyrimidin-4-yl)piperidin-3-ol] | 5 to 10
11 | N[C@@H]1CCCN(c2nc(OC[C@@]34CCCN3C[C@H](F)C4)nc3c(F)c(-c4cc(O)cc5ccccc45)ncc23)C1 [Compound 5, 4-(4-((R)-3-Aminopiperidin-1-yl)-8-fluoro-2-(((2R,7aS)-2-fluorohexahydro-1H-pyrrolizin-7a-yl)methoxy)pyrido[4,3-d]pyrimidin-7-yl)naphthalen-2-ol] | 5 to 10
12 | C#Cc1c(F)ccc2cc(O)cc(-c3ncc4c(N5C[C@@H]6[C@H](N)[C@@H]6C5)nc(OC[C@@]56CCCN5C[C@H](F)C6)nc4c3F)c12 [Compound 12, 4-(4-((1R,5S,6S)-6-Amino-3-azabicyclo[3.1.0]hexan-3-yl)-8-fluoro-2-(((2R,7aS)-2-fluorohexahydro-1H-pyrrolizin-7a-yl)methoxy)pyrido[4,3-d]pyrimidin-7-yl)-5-ethynyl-6-fluoronaphthalen-2-ol bis(2,2,2-trifluoroacetate)] | 5 to 10
13 | N[C@H]1CCCN(c2nc(OC[C@@]34CCCN3C[C@H](F)C4)nc3c(F)c(-c4cc(O)cc5ccccc45)ncc23)C1 [Compound 3, 4-(4-((S)-3-Aminopiperidin-1-yl)-8-fluoro-2-(((2R,7aS)-2-fluorohexahydro-1H-pyrrolizin-7a-yl)methoxy)pyrido[4,3-d]pyrimidin-7-yl)naphthalen-2-ol] | 5 to 10
14 | Cc1cc(N)nc(-c2ncc3c(N4CCC[C@H](N)C4)nc(OC[C@@]45CCCN4C[C@H](F)C5)nc3c2F)c1C(F)(F)F [Compound 2, 6-(4-((S)-3-Aminopiperidin-1-yl)-8-fluoro-2-(((2R,7aS)-2-fluorohexahydro-1H-pyrrolizin-7a-yl)methoxy)pyrido[4,3-d]pyrimidin-7-yl)-4-methyl-5-(trifluoromethyl)pyridin-2-amine tetrakis(2,2,2-trifluoroacetate)] | 5 to 10
15 | C#Cc1c(F)ccc2cc(O)cc(-c3ncc4c(N5C[C@H](N)C[C@@H](O)C5)nc(OC[C@@]56CCCN5C[C@H](F)C6)nc4c3F)c12 [Compound 14, (3R,5R)-5-Amino-1-(7-(8-ethynyl-7-fluoro-3-hydroxynaphthalen-1-yl)-8-fluoro-2-(((2R,7aS)-2-fluorohexahydro-1H-pyrrolizin-7a-yl)methoxy)pyrido[4,3-d]pyrimidin-4-yl)piperidin-3-ol bis(2,2,2-trifluoroacetate)] | 5 to 10

target: Ba/F3 KRAS-G12D cells (Homo sapiens, UniProt P01116, G12D, cells depend on it); test: Proliferation inhibitory activity on Ba/F3 KRAS-G12D stably transfected cell line (CellTiter-Glo, 72 hours); format: cell-based, mouse; details: read-out: Ba/F3 KRAS-G12D IC50
Excerpt: as §1, §2, §3, §4

Sequence of Ba/F3 KRAS-G12D cells (P01116 whole entry G12D): as the sequence (P01116 whole entry G12V) above, with V12D counted along it

Row | GI50 [µM] | Structure (SMILES)
16 | 5 to 10 | C#Cc1c(F)ccc2cc(O)cc(-c3ncc4c(N5CC[C@H](N)C5)nc(OC[C@@]56CCCN5C[C@H](F)C6)nc4c3F)c12 [Compound 15, 4-(4-((S)-3-Aminopyrrolidin-1-yl)-8-fluoro-2-(((2R,7aS)-2-fluorohexahydro-1H-pyrrolizin-7a-yl)methoxy)pyrido[4,3-d]pyrimidin-7-yl)-5-ethynyl-6-fluoronaphthalen-2-ol]
17 | 5 to 10 | C#Cc1c(F)ccc2cc(O)cc(-c3ncc4c(N5C[C@@H]6C[C@]6(N)C5)nc(OC[C@@]56CCCN5C[C@H](F)C6)nc4c3F)c12 [Compound 9, 4-(4-((1R,5S)-1-Amino-3-azabicyclo[3.1.0]hexan-3-yl)-8-fluoro-2-(((2R,7aS)-2-fluorohexahydro-1H-pyrrolizin-7a-yl)methoxy)pyrido[4,3-d]pyrimidin-7-yl)-5-ethynyl-6-fluoronaphthalen-2-ol]
18 | 5 to 10 | C#Cc1c(F)ccc2cc(O)cc(-c3ncc4c(N5CCC[C@H](N)C5)nc(OC[C@@]56CCCN5C[C@H](F)C6)nc4c3F)c12 [Compound 7, 4-(4-((S)-3-Aminopiperidin-1-yl)-8-fluoro-2-(((2R,7aS)-2-fluorohexahydro-1H-pyrrolizin-7a-yl)methoxy)pyrido[4,3-d]pyrimidin-7-yl)-5-ethynyl-6-fluoronaphthalen-2-ol]
